Assay results as given in patent US6060504A, “N-methyl-N-[(1S)-1-phenyl-2-(3S)-hydroxypyrrolidin-1-yl)ethyl]-2 -2-diphenylacetamide” (priority 1995, dated 2000).
Structures can show the parent of a compound that is named as a salt. Where two headings read alike, the source gives them in different places.

Tests used:
Solubility in water = assay type: physicochemical; conditions: at 20° C.
pKa = assay type: physicochemical
[1] = assay type: physicochemical
Description: In the case of these two types, not only their melting behavior differs but also their storage stabilities. […] During DSC determination (DSC=Differential Scanning Calorimetry)of the crystal form of type II, on slow heating above the melting point at approximately 200° C. the crystal type IV which melts at approximately 220-226° C. crystallizes out. Crystal type IV is also detected when a melt of type II (just above 200° C.) is suddenly cooled and stored at room temperature for a period of 12 to 16 hours. […] In contrast to this, however, by seeding with seed crystals of type […] the crystal form IV is especially obtained. Additionally, the solubility of the crystal type IV in aqueous solution is lower than that of type II.

Solubility in methanol = assay type: physicochemical; conditions: organic solvent or mixture, at 20° C.
[2] = Solubility of crystal types in aqueous solution; assay type: physicochemical
[3] = pharmaceutical activity of crystal forms; assay type: in vivo
writhing (pain) = assay: writhing test; assay type: in vivo; conditions: mice or rats
Source text: Experiments have shown that the compound according to the invention is active in the "writhing test" on mice or rats (method cf. Siegmund et al., Proc. Soc. Exp. Biol. 95, (1957), 729-731).

neurodermatitis = assay: treatment of neurodermatitis; assay type: in vivo
burns = assay: treatment of burns and sunburn; assay type: in vivo; conditions: heat, flames, severe sunburn
physical dependence = physical dependence / dependence potential; assay type: in vivo
[4] = system: inflammation-related hyperalgesias; assay: analgesic action / inflammation-related hyperalgesias; conditions: in vivo
[5] = anti-inflammatory, diuretic, anticonvulsive and neuroprotective actions (familiar methods); conditions: in vivo
[6] = system: carrageenan-induced hyperalgesia; assay: carrageenan-induced hyperalgesia model; assay type: in vivo; conditions: rats
kappa-receptors = assay: binding to kappa-receptors
[7] = system: rheumatic disorders and back conditions; assay: treatment of rheumatic disorders and back conditions; assay type: in vivo
allergic skin reactions = assay: treatment of allergies to the sun; assay type: in vivo
intestinal motility = assay: inflammatory bowel disorders / intestinal motility; assay type: in vivo; conditions: inflammatory bowel disorder
side effects = conditions: in vivo
[8] = blood-brain barrier passage; conditions: due to its structure
[9] = listed as N-methyl-N-[(1S)-1-phenyl-2-((3S)-3-hydroxypyrrolidin-1-yl)ethyl]-2,2-diphenylac

Q: For `CN(C(=O)C(c1ccccc1)c1ccccc1)[C@H](CN1CC[C@H](O)C1)c1ccccc1` [Comparison Example, N-methyl-N-[(1S)-1-phenyl-2-((3S)-3-hydroxypyrrolidin-1-yl)ethyl]-2.2-diphenylacetamide hydrochloride], which solubility (Solubility in water) is on record?
A: 11.6 mg/mL

Q: And the pKa (pKa; read-out: pKa)?
A: 7.4

Q: What about the “stability of crystal form” value [1] of the same molecule?
A: metastable

Q: What about the “storage at high humidity” value ([1]; atmospheric humidity approximately 73% to 95%) of the same molecule?
A: A form designated as type III is obtained

Q: And the “storage at 170° C.” value ([1]; drying oven at 170° C.)?
A: a partial conversion into type IV was detected

Q: What about the “seven months' storage” value ([1]; seven months, room temperature) of the same molecule?
A: a start of conversion to the thermostable crystal modification IV

Q: What about the solubility (Solubility in methanol) of the same molecule?
A: 63.1 mg/mL

Q: For `CN(C(=O)C(c1ccccc1)c1ccccc1)[C@H](CN1CC[C@H](O)C1)c1ccccc1.Cl` [Example 1, N-methyl-N-[(1S)-1-phenyl-2-((3S)-3-hydroxypyrrolidin-1-yl)ethyl]-2,2-diphenylacetamide hydrochloride], which solubility (Solubility in water) is on record?
A: 7.6 mg/mL

Q: And the pKa (pKa)?
A: 7.4

Q: What about the “solubility of crystal type IV relative to the solubility of type II” value [2] of the same molecule?
A: 45% to 70

Q: What about the solubility (Solubility in methanol) of the same molecule?
A: 42.6 mg/mL

Q: With `CN(C(=O)C(c1ccccc1)c1ccccc1)[C@H](CN1CC[C@H](O)C1)c1ccccc1.Cl` [N-methyl-N-[(1S)-1-phenyl-2-((3S)-3-hydroxypyrrolidin-1-yl)ethyl]-2,2-diphenylacetamide hydrochloride] as the molecule, how does the “effectiveness as medicament in all indication areas” value ([3]; all types of preparation forms) read?
A: particularly effective

Q: For `CN(C(=O)C(c1ccccc1)c1ccccc1)[C@H](CN1CC[C@H](O)C1)c1ccccc1` [compound according to the invention, N-methyl-N-[(1S)-1-phenyl-2-((3S)-3-hydroxypyrrolidin-1-yl)ethyl]-2,2-diphenylacetamide], which “activity in the writhing test” value (writhing (pain)) is on record?
A: active

Q: What about the “inflammatory reactions, neurodermatitis” value (neurodermatitis) of the same molecule?
A: favorably influenced

Q: What about the “itching, neurodermatitis” value (neurodermatitis) of the same molecule?
A: the itching of the skin in this disorder subsides

Q: What about the treatment of burns (burns) of the same molecule?
A: particularly suitable in the treatment of burns

Q: What about the dependence potential (physical dependence; attributed to no blood-brain barrier passage) of the same molecule?
A: no dependence potential

Q: What about the “tendency to physical dependence” value (physical dependence; in vivo) of the same molecule?
A: no or only a small tendency to physical dependence

Q: What about the analgesic actions [4] of the same molecule?
A: particularly good analgesic actions

Q: What about the “antagonism of inflammation-related hyperalgesias” value [4] of the same molecule?
A: antagonize

Q: What about the anti-inflammatory action [5] of the same molecule?
A: pronounced

Q: And the anticonvulsive action [5]?
A: pronounced

Q: And the diuretic action [5]?
A: pronounced

Q: And the neuroprotective action [5]?
A: pronounced

Q: What about the “action in carrageenan-induced hyperalgesia model” value [6] of the same molecule?
A: Particularly strong actions

Q: And the affinity to kappa-receptors (kappa-receptors)?
A: high affinity

Q: What about the “efficacy in rheumatic disorders and back conditions” value ([7]; in vivo) of the same molecule?
A: particularly effective

Q: What about the “normal motility of the gastrointestinal tract” value ([7]; rheumatic disorders and back conditions) of the same molecule?
A: not adversely affected

Q: And the allergic skin reactions (allergic skin reactions)?
A: allergic skin reactions rapidly fade

Q: What about the “itching, allergies to the sun” value (allergic skin reactions) of the same molecule?
A: rapidly subsides

Q: What about the intestinal motility normalization (intestinal motility) of the same molecule?
A: suitable for normalizing disorders of the intestinal motility

Q: What about the intestinal motility normalization (intestinal motility; [9]) of the same molecule?
A: normalizes the motility of the intestine or sets it in motion again

Q: And the “dependence of pharmaceutical activity on crystal form” value ([3]; in vivo)?
A: relatively independent of the crystal form

Q: And the side effects (side effects)?
A: no side effects have been found which would restrict the use

Q: And the side effects (side effects; [9])?
A: without causing noticeable side effects

Q: And the blood-brain barrier passage [8]?
A: cannot pass through the blood-brain barrier

Q: With `CN(C(=O)C(c1ccccc1)c1ccccc1)[C@H](CN1CC[C@H](O)C1)c1ccccc1` [type I, N-methyl-N-[(1S)-1-phenyl-2-((3S)-3-hydroxypyrrolidin-1-yl)ethyl]-2,2-diphenylacetamide] as the molecule, how does the “conversion of solvate type I” value ([1]; slow heating releases solvent) read?
A: readily converted into another crystal type
